Source: US20090099167A1, “Organic compounds” (Novartis Institutes for Biomedical Research, priority 2004, published 2009)
Where two headings read alike, the source gives them in different places.

Columns and labels:
[1] = target: T1, human VEGF-R2 receptor (KDR) (Homo sapiens, UniProt P35968); test: VEGF-induced KDR autophosphorylation in transfected CHO cells, sandwich ELISA; assay type: cell-based; details: Table 4; read-out: KDR, activity (IC50 for kinase inhibition)
T1 construct: expressed in transfected cells; host or cells: CHO cells

c-Abl kinase = target: T2, c-Abl kinase (Homo sapiens, UniProt P00519); test: c-Abl protein-tyrosine kinase filter binding assay; assay type: biochemical
T2 construct: The His-tagged kinase domain of c-Abl is cloned and expressed in the baculovirus/Sf9 system; His; made in house; host or cells: Sf9 (baculovirus)
T2 sequence (P00519 242-493 limits assumed): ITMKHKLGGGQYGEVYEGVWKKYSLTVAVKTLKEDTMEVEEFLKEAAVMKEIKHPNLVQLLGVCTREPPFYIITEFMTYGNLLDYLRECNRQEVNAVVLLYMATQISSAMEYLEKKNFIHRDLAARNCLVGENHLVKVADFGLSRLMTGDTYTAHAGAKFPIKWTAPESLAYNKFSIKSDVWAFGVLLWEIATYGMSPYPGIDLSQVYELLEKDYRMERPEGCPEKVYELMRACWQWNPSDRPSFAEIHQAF
Method in brief: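 His-tagged c-Abl kinase domain (37 kD, Sf9-expressed) with 30 μg/mL poly-AEKY and [γ-33P]-ATP (5 μM ATP) in 20 mM Tris.HCl pH 7.5, 10 mM MgCl2, 10 μM Na3VO4, 1 mM DTT, 1% DMSO. EDTA-stopped reactions captured on PVDF membranes, washed with 0.5% H3PO4, and scintillation-counted.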

[2] = target: T3, human insulin receptor (Ins-R) (Homo sapiens, UniProt P06213); test: Ins-R tyrosine kinase assay, GST-Ins-R; assay type: biochemical
T3 construct: encoding the amino acid region 919-1343 of the intra-cytoplasmic kinase domain of the human insulin receptor; made in house; host or cells: baculovirus (Bac-to-Bac)
Text: The inhibition of IGF-1R and Ins-R can be determined as follows: The baculovirus donor vector pfbgx3IGFIRcd is used to generate a recombinant baculovirus that expresses the amino acid region 950-1337 of the mature peptide cytoplasmic domain of the human IGF-IR. To generate the cDNA fragment encoding the amino acid region 919-1343 of the intra-cytoplasmic kinase domain of the human insulin receptor, pC5hInsR is used. The fragments of the human IGF-IR and Ins-R are cloned, expressed and small-scale purified as a factor Xa-cleavable glutathione-S-transferase (GST)-fusion protein using the Bac-to-Bac™ system (GIBCO BRL) of recombinant baculovirus generation. Virus containing media is collected from the transfected cell culture and used for infection to increase its titer. Virus containing media obtained after two rounds of infection is used for large-scale protein expression. Cell extracts are prepared and loaded onto a glutathione-Sepharose (Pharmacia) column. After washing, the GST-tagged proteins are then eluted with a glutathione-containing buffer. Purified protein is stored at −70° C. in elution buffer. Tyrosine protein kinase assays with purified GST-IGF-1R and GST-ins-R are carried in a final volume of 30 μl containing 20 mM Tris-HCl, pH 7.6, 10 mM MgCl2, 0.01 mM Na3VO4, 1% DMSO, 1 mM DTT, 3 μg/ml poly(Glu,Tyr) 4:1 and 10 μM ATP (γ-[^33P]-ATP 0.1 μCi). The assay is performed in 96-well plates at ambient temperature for 20 min and terminated by addition of 25 μl 0.05 M EDTA pH 7.0. An aliquot of 40 μl is spotted with a multichannel dispenser on Whatman P81 membranes mounted in a Millipore Microtiter filter manifold connected to a low vacuum source. After elimination of liquid, the membrane is transferred to a sequence of 4 washing baths containing 0.5% H3PO4 and one with EtOH (shaking incubation for 10 min each), dried, mounted onto a Hewlett Packard TopCount manifold added 10 μl Microscint® and counted. Compounds of formula (I) show up to 90% inhibition of Ins-R at 10,000 nM, preferably between 60-90% inhibition. The inhibition of Tek can be determined as follows: The procedure of the expression, purification and assay these kinases has been described. Fabbro et al., Pharmacol. Ther. 82(2-3) 293-301 (1999). In brief, the glutathione S-transferase (GST) gene from the pAcG1 vector (Pharmingen) is excised with EcoRV and EcoRI and inserted into the cloning site of the Fast-Bac baculoviral vector (GIBCO) creating a 5530 bp vector with N-terminal cloning sites derived from the pAcG1 fusion vector (FBG0). The C-terminal cloning site may be any cloning site (from the Fast-Bac vector) downstream of the N-terminal cloning site used. N-terminally GST-fused (pAcG1, Pharmingen) KDR, Flt-1, Flk-1, Tek and PDGFR-β kinase domains are obtained from ProQinase, Freiburg, Germany. Tek is recloned into the FBG1 vector by EcoRI excision and ligation into EcoRI digested FBG1 (FBG1-Tek). The coding sequences for the whole cytoplasmic domain of c-Kit (aa 544-976) and c-Fms (aa 538-972) are amplified by PCR from human uterus and from human bone marrow cDNA libraries (Clontech), respectively. The amplified DNA fragments are fused to GST by cloning them into FBG1 as BamHI-EcoRI insertions, to yield FBG1-c-Kit and FBG1-c-Fms. Tek is recloned into the FBG0 transfer vector by EcoRI excision and ligation into EcoRI digested FBG0 (FBG-Tie2/Tek). FGFR-1 and c-met kinase domains are obtained by PCR from human A431 cells. N-terminal primers contain an overhanging EcoRI site, while C-terminal primers contain a XhoI site to aid cloning into the transfer vectors. After digestion of both the PCR fragments and FBG0 the cleavage products are gel-purified and ligated together to form the kinase constructs (FBG-Met, FBG-FGFR-1).

[3] = Table 4, read-out: c-abl, activity (IC50 for kinase inhibition)
[4] = Table 5, read-out: C-abl, IC50 class
[5] = Table 5, read-out: Ins-R, IC50 class

T1 sequence (P35968 20-1356): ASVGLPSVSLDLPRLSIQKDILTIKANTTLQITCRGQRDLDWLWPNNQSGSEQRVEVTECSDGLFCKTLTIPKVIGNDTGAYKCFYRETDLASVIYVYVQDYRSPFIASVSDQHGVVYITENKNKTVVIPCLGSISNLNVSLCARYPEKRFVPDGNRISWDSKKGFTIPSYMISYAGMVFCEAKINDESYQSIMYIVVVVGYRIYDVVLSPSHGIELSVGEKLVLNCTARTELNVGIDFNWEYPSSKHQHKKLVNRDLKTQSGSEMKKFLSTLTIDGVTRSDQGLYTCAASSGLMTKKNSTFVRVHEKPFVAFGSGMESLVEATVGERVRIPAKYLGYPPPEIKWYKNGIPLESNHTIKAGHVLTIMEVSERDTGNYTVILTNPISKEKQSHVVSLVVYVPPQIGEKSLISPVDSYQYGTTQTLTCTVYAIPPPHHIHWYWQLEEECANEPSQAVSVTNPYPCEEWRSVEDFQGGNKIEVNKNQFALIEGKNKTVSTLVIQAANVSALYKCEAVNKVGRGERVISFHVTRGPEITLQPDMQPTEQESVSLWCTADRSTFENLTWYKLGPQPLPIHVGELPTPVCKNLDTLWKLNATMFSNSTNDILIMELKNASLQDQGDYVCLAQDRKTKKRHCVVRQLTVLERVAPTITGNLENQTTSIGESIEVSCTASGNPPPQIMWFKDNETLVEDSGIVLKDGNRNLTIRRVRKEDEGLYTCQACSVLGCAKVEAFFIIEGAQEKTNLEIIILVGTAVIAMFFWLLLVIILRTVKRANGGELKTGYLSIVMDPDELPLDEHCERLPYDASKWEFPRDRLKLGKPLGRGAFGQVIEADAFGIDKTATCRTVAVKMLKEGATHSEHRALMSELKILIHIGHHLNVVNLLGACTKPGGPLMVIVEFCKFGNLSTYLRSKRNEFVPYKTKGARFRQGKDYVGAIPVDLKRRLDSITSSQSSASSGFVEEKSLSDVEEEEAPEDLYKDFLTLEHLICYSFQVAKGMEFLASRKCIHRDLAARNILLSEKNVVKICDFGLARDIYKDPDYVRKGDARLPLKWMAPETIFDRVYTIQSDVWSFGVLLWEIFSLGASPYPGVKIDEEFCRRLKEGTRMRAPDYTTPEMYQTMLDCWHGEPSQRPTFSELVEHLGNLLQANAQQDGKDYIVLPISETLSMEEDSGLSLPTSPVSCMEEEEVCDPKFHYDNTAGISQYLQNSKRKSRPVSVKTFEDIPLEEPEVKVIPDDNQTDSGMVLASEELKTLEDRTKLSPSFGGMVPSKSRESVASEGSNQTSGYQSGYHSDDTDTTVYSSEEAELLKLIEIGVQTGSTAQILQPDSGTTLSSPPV
T3 sequence (P06213 958-1382 limits assumed): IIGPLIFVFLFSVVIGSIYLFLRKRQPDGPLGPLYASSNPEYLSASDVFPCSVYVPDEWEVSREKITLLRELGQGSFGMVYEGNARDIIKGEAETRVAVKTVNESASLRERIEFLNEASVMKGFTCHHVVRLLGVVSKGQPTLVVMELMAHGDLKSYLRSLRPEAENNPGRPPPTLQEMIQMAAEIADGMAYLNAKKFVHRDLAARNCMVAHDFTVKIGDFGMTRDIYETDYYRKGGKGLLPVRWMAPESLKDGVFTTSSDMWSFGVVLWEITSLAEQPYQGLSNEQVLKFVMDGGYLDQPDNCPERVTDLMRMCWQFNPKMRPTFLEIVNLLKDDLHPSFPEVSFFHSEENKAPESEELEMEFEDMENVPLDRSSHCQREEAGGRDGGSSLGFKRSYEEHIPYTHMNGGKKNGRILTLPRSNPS

SMILES	IC50 [1]	IC50 (c-Abl kinase; [3])	IC50 ([2]; Table 4, read-out: Ins-R, activity (IC50 for kinase inhibition))	IC50 (c-Abl kinase; [4])	IC50 [2, 5]
CN1CCN(c2ccc(-c3cnn4c(N)c(-c5cccc(O)c5)cnc34)cc2)CC1 [Example 1, 3-{7-Amino-3-[4-(4-methyl-piperazin-1-yl)-phenyl]-pyrazolo[1,5-a]pyrimidin-6-yl}-phenol]	< 10 µM	< 10 µM	< 10 µM		
CN1CCN(c2cccc(-c3cnn4c(N)c(-c5cccc(O)c5)cnc34)c2)CC1 [Example 29, 3-{7-Amino-3-[3-(4-methyl-piperazin-1-yl)-phenyl]-pyrazolo[1,5-a]pyrimidin-6-yl}-phenol]	< 10 µM				
Nc1c(-c2cccc(O)c2)cnc2c(-c3cccnc3)cnn12 [Example 46, 3-[7-Amino-3-pyridin-3-yl-pyrazolo[1,5-a]pyrimidin-6-yl]-phenol]	< 10 µM	< 10 µM			
Cc1nc2c(-c3cccc(N4CCN(C)CC4)c3)cnn2c(N)c1-c1cccc(Cl)c1 [Example 72, 6-(3-Chloro-phenyl)-5-methyl-3-[3-(4-methyl-piperazin-1-yl)-phenyl]-pyrazolo[1,5-a]pyrimidin-7-ylamine]				< 1 µM	1 to 10 µM
Cc1nc2c(-c3ccc(N4CCN(C)CC4)cc3)cnn2c(N)c1-c1cccc(Cl)c1 [Example 73, 6-(3-Chloro-phenyl)-5-methyl-3-[4-(4-methyl-piperazin-1-yl)-phenyl]-pyrazolo[1,5-a]pyrimidin-7-ylamine]				< 1 µM	> 10 µM
COc1cc(N2CCN(C)CC2)ccc1-c1cnn2c(N)c(-c3cccc(O)c3)cnc12 [Example 76, 3-{7-Amino-3-[2-methoxy-4-(4-methyl-piperazin-1-yl)-phenyl]-pyrazolo[1,5-a]pyrimidin-6-yl}-phenol]					1 to 10 µM
Cc1nc2c(-c3cccc(N4CCN(C)CC4)c3)cnn2c(N)c1-c1ccc(F)cc1 [Example 80, 6-(4-Fluoro-phenyl)-5-methyl-3-[3-(4-methyl-piperazin-1-yl)-phenyl]-pyrazolo[1,5-a]pyrimidin-7-ylamine]				< 1 µM	> 10 µM
Cc1nc2c(-c3ccc(N4CCN(C)CC4)cc3)cnn2c(N)c1-c1ccc(F)c(Cl)c1 [Example 83, 6-(3-Chloro-4-fluoro-phenyl)-5-methyl-3-[4-(4-methyl-piperazin-1-yl)-phenyl]-pyrazolo[1,5-a]pyrimidin-7-ylamine]				< 1 µM	> 10 µM
COc1ccc(-c2cnn3c(N)c(-c4cccc(Cl)c4)c(C)nc23)cc1 [Example 88, 6-(3-Chloro-phenyl)-3-(4-methoxy-phenyl)-5-methyl-pyrazolo[1,5-a]pyrimidin-7-ylamine]				< 1 µM	> 10 µM
Cc1nc2c(-c3cccc(N4CCN(CCO)CC4)c3)cnn2c(N)c1-c1cccc(Cl)c1 [Example 90, 2-(4-{3-[7-Amino-6-(3-chloro-phenyl)-5-methyl-pyrazolo[1,5-a]pyrimidin-3-yl]-phenyl}-piperazin-1-yl)-ethanol]				< 1 µM	> 10 µM
